The target in the assay is T1, human LPA1 (Homo sapiens, UniProt Q92633).
T1 construct: expressed in transfected cells; host or cells: Chinese hamster ovary (CHO) cells
As to the kind of experiment: LPA1 functional antagonist assay (LPA-induced calcium flux). Type of assay: cell-based. To be noted: CHO cells overexpressing human LPA1; inhibition of calcium flux induced by 10 nM LPA; read-out: hLPA1 IC50. As for the experimental part:
The effectiveness of compounds of the present invention as LPA1 inhibitors can be determined in an LPA1 functional antagonist assay as follows:
Chinese hamster ovary cells overexpressing human LPA1 were plated overnight (15,000 cells/well) in poly-D-lysine coated 384-well microplates (Greiner bio-one, Cat #781946) in DMEM/F12 medium (Gibco, Cat #11039). Following overnight culture, cells were loaded with calcium indicator dye (AAT Bioquest Inc, Cat #34601) for 30 minutes at 37° C. The cells were then equilibrated to room temperature for 30 minutes before the assay. Test compounds solubilized in DMSO were transferred to 384 well non-binding surface plates (Corning, Cat #3575) using the Labcyte Echo acoustic dispense and diluted with assay buffer [1×HBSS with calcium/magnesium (Gibco Cat #14025-092), 20 mM HEPES (Gibco Cat #15630-080) and 0.1% fatty acid free BSA (Sigma Cat #A9205)] to a final concentration of 0.5% DMSO. Diluted compounds were added to the cells by FDSS6000 (Hamamatsu) at final concentrations ranging from 0.08 nM to 5 μM. and were then incubated for 20 min at room temperature at which time LPA (Avanti Polar Lipids Cat #857130C) was added at final concentrations of 10 nM to stimulate the cells. The compound IC50 value was defined as the concentration of test compound which inhibited 50% of the calcium flux induced by LPA alone. IC50 values were determined by fitting data to a 4-parameter logistic equation (GraphPad Prism, San Diego CA).

T1 sequence (Q92633 whole entry): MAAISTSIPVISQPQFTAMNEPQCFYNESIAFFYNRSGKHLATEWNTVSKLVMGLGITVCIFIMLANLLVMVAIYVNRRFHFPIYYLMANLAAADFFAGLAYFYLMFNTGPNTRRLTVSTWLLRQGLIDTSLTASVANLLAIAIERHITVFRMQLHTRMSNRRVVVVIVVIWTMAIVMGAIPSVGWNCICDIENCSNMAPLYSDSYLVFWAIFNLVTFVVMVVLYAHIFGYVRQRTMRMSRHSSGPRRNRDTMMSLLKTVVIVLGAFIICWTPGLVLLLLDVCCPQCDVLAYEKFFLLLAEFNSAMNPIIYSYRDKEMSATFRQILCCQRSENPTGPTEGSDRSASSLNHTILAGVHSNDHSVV

As for `CCC1(N(C)C(=O)OCc2c(-c3ccc(O[C@H]4CC[C@H](CC(=O)O)C4)c(C)n3)nnn2C)CC1` (racemic) [Example 58, (±)-trans-2-[3-({6-[5-({[(1-ethylcyclo-propyl)(methyl)carbamoyl]oxy}methyl)-1-methyl-1H-1,2,3-triazol-4-yl]-2-methylpyridin-3-yl}oxy)cyclo-pentyl]acetic acid], the 50% inhibitory concentration (IC50) amounted to 479 nM.

With `Cc1nc(-c2onc(C)c2COC(=O)N(C)C2CCCC2)ccc1O[C@H]1CC[C@H](C(C)C(=O)O)C1` (mixture of isomers) [Example 50, (±)-trans-2-[3-({6-[4-({[cyclopentyl(methyl)carbamoyl]oxy}methyl)-3-methyl-1,2-oxazol-5-yl]-2-methyl-pyridin-3-yl}oxy)cyclopentyl]propanoic acid], the IC50 was 20 nM.

Turning to `Cc1nc(-c2nnn(C)c2COC(=O)N(C)CC2CCC2)cnc1O[C@H]1CC[C@H](CC(=O)O)C1` (single isomer, unassigned) [Example 27, 2-(trans-3-((5-(5-((((cyclobutylmethyl)(methyl)carbamoyl)oxy)methyl)-1-methyl-1H-1,2,3-triazol-4-yl)-3-methylpyrazin-2-yl)oxy)cyclopentyl)acetic Acid], the IC50 amounted to 260 nM.

Turning to `Cc1nc(-c2onc(C)c2COC(=O)N(C)C2CCCC2)ccc1O[C@H]1CC[C@H](C(=O)O)C1` (racemic) [Example 77, (±)-trans-3-({6-[4-({[cyclopentyl(methyl)carbamoyl]oxy}methyl)-3-methyl-1,2-oxazol-5-yl]-2-methyl-pyridin-3-yl}oxy)cyclopentane-1-carboxylic acid], the IC50 amounted to 66 nM.

As for `CC(C)CCN(C)C(=O)OCc1c(-c2ccc(O[C@H]3CC[C@@H](C(=O)O)C3)cc2)nnn1C` (relative stereo) [Example 12, Cis-3-(4-(5-(((isopentyl(methyl)carbamoyl)oxy)methyl)-1-methyl-1H-1,2,3-triazol-4-yl)phenoxy)cyclo-pentane-1-carboxylic acid], the IC50 was determined as 448 nM.

Turning to `Cc1nc(-c2nnn(C)c2CNc2nccc(-c3ccccn3)n2)ccc1OC[C@@H]1CC[C@H](C(=O)O)C1` (relative stereo) [Example 36, cis-3-(((2-methyl-6-(1-methyl-5-(((4-(pyridin-2-yl)pyrimidin-2-yl)amino)methyl)-1H-1,2,3-triazol-4-yl)pyridin-3-yl)oxy)methyl)cyclopentane-1-carboxylic acid], the IC50 came out at 119 nM.

Regarding `Cc1nc(-c2nnn(C)c2COC(=O)N(C)C2(C)CC2)ccc1O[C@H]1CC[C@H](CC(=O)O)C1` (racemic) [Example 57, (±)-trans-2-[3-({2-methyl-6-[1-methyl-5-({[methyl(1-methylcyclo-propyl)carbamoyl]oxy}methyl)-1H-1,2,3-triazol-4-yl]pyridin-3-yl}oxy)cyclopentyl]acetic acid], the IC50 was determined as 295 nM.

`Cc1nc(-c2nnn(C)c2COC(=O)N(C)CC2CCC2)ccc1O[C@H]1CC[C@@H](C(=O)O)C1` (racemic) [Example 74, (±)-cis-3-({6-[5-({[cyclobutylmethyl)(methyl)carbamoyl]oxy}methyl)-1-methyl-1H-1,2,3-triazol-4-yl]-2-methylpyridin-3-yl}oxy)cyclopentane-1-carboxylic acid]: the IC50 stood at 101 nM.

For the compound `Cc1noc(-c2ccc(O[C@@H]3CC[C@@H](CC(=O)O)C3)cn2)c1CNc1nccc(-c2ccccn2)n1` (racemic) [Example 29, (±)2-(Trans-3-((6-(3-methyl-4-(((4-(pyridin-2-yl)pyrimidin-2-yl)amino)methyl)isoxazol-5-yl)pyridin-3-yl)oxy)cyclopentyl)acetic Acid], the IC50 was found to be 54 nM.

Consider `CCCC1(COC(=O)NCc2c(-c3ccc(O[C@@H]4CC[C@@H](CC(=O)O)C4)c(C)n3)nnn2C)CC1` (racemic) [Example 9, (±)-Trans-2-(3-((2-methyl-6-(1-methyl-5-(((((1-propylcyclopropyl)methoxy)carbonyl)amino)methyl)-1H-1,2,3-triazol-4-yl)pyridin-3-yl)oxy)cyclopentyl)acetic Acid], for which the half-maximal inhibitory concentration (IC50) was found to be 111 nM.
